Data on 28 compounds can be found in US20260138980A1, “SPIRO COMPOUNDS AND USES THEREOF IN THE FIELD OF MEDICINE” (Kind Pharmaceutical, priority 2023, published 2026).

In general, IC50 refers to the concentration that gives 50% inhibition. Low readings indicate higher potency, high ones lower potency.

The structures appear in SMILES notation.

This experiment concerns EPO. Nature of the experiment: Determination of EPO inhibition rate by compounds using Hep3B cells (EPO ELISA of culture supernatant). The format is cell-based. The following applies: Homo sapiens, EPO induced with 30 μM (6′-hydroxy-3′-(4-methoxyphenyl)-8′-oxo-8′H-spiro[cyclopentane-1,5′-indolizine]-7′-carbonyl)glycine or its analogues, test compound 48 hours. The procedure: Hep3B cells (from the Cell Bank of the Chinese Academy of Sciences, TCHu106) were seeded in a plate at a density of 5×10^4/mL and incubated overnight at 37° C. in a 5% CO2 incubator (Thermo Scientific BB150). The next day, the culture medium was replaced with medium containing 0.5% FBS (VivaCell C04001-500) to starve the cells for 6 hours. Subsequently, a DMSO solution of (6′-hydroxy-3′-(4-methoxyphenyl)-8′-oxo-8′H-spiro[cyclopentane-1,5′-indolizine]-7′-carbonyl)glycine or its analogues was added to achieve a final concentration of 30 μM. The plate was returned to the 37° C., 5% CO2 incubator for an additional 24 hours. Then, a DMSO solution of the test compound was added to achieve final concentrations of 30000 nM, 7500 nM, 1875 nM, 469 nM, 117 nM, 29 nM, 7.3 nM, 1.8 nM, 0.5 nM, and 0 nM (ten concentrations in total). Treatment continued for 48 hours. Cell culture supernatants were collected for EPO ELISA detection. The assay was performed according to the instructions of the ELISA kit (Sangon Biotech (Shanghai) Co., Ltd., D711311-0096). Absorbance was read at a wavelength of 450 nm using a microplate reader (Thermo Scientific Multiskan Go, 511191200).
The compound inhibition rate was calculated using the formula: Inhibition Rate=1-100%*(EPO value of the treated well−EPO value of the blank well)/(EPO value of the Control well−EPO value of the blank well). The IC50 value was calculated by linear fitting of the inhibition rates. Herein, the Control well refers to the cell-containing well treated for 72 hours with a DMSO solution containing 0 nM of the test compound but containing 30 μM of (6′-hydroxy-3′-(4-methoxyphenyl)-8′-oxo-8′H-spiro[cyclopentane-1,5′-indolizine]-7′-carbonyl)glycine or its analogues. The EPO level in this well was set as 100%. The blank well refers to a cell-containing well without the addition of any compound.
For orientation: An ELISA detects its analyte on a solid surface through an enzyme-linked reagent.
`FC1=CCC2(CN3C=C(C(F)(F)F)C=C(OC(F)F)C3=N2)c2ccnc(Cl)c21` (racemic) [Example 1, 1′-Chloro-8-difluoromethoxy-8′-fluoro-6-trifluoromethyl-3H,6′H-spiro[imidazo[1,2-a]pyridine-2,5′-isoquinoline]] gave an IC50 of 29 nM.

For `FC(F)OC1=CC(C(F)(F)F)=CN2CC3(CC=Cc4c3ccnc4Cl)N=C12` (racemic) [Example 2, 1′-Chloro-8-difluoromethoxy-6-trifluoromethyl-3H,6′H-spiro[imidazo[1,2-a]pyridine-2,5′-isoquinoline]], the IC50 worked out at 35.8 nM.

As to `FC1=Cc2c(ccnc2Cl)C2(C1)CN1C=C(C(F)(F)F)C=C(OC(F)F)C1=N2` (racemic) [Example 10, 1′-Chloro-8-difluoromethoxy-7′-fluoro-6-trifluoromethyl-3H,6′H-spiro[imidazo[1,2-a]pyridine-2,5′-isoquinoline]], the IC50 was 26.8 nM.

`FC1=CCC2(CN3C=C(C(F)(F)F)C=C(OC(F)F)C3=N2)c2cccc(F)c21` (racemic) [Example 15, 8-(Difluoromethoxy)-4′,5′-difluoro-6-(trifluoromethyl)-2′H,3H-spiro[imidazo[1,2-a]pyridine-2,1′-naphthalene]] registered an IC50 of 3.04 nM.

`Fc1cccc2c1C=CCC21CN2C=C(C(F)(F)F)C=C(OC(F)F)C2=N1` (racemic) [Example 16, 8-(Difluoromethoxy)-5′-fluoro-6-trifluoromethyl-2′H,3H-spiro[imidazo[1,2-a]pyridine-2,1′-naphthalene]] registered an IC50 of 7.01 nM.

As for `FC1=CC[C@@]2(CN3C=C(C(F)(F)F)C=C(OC(F)F)C3=N2)c2ccnc(Cl)c21` (single isomer, unassigned) [Example 1-A], half-maximal inhibition (IC50) was put at 17.9 nM.

For `FC1=CC[C@]2(CN3C=C(C(F)(F)F)C=C(OC(F)F)C3=N2)c2ccnc(Cl)c21` (single isomer, unassigned) [Example 1-B], it took 563 nM to reach half-maximal inhibition (IC50).

`FC(F)OC1=CC(C(F)(F)F)=CN2C[C@]3(CC=Cc4c3ccnc4Cl)N=C12` (single isomer, unassigned) [Example 2-A] gave an IC50 of 365 nM.

The compound `FC(F)OC1=CC(C(F)(F)F)=CN2C[C@@]3(CC=Cc4c3ccnc4Cl)N=C12` (single isomer, unassigned) [Example 2-B] came in with an IC50 of 18.7 nM.

As to `FC1=Cc2c(ccnc2Cl)[C@]2(C1)CN1C=C(C(F)(F)F)C=C(OC(F)F)C1=N2` (single isomer, unassigned) [Example 10-A], it took 2150 nM to reach half-maximal inhibition (IC50).

On to `FC1=Cc2c(ccnc2Cl)[C@@]2(C1)CN1C=C(C(F)(F)F)C=C(OC(F)F)C1=N2` (single isomer, unassigned) [Example 10-B], for which the IC50 is 26.9 nM.

On to `FC1=CC[C@@]2(CN3C=C(C(F)(F)F)C=C(OC(F)F)C3=N2)c2cccc(F)c21` (single isomer, unassigned) [Example 15-A], for which the concentration for half-maximal inhibition (IC50) worked out at 2.12 nM.

For the compound `FC1=CC[C@]2(CN3C=C(C(F)(F)F)C=C(OC(F)F)C3=N2)c2cccc(F)c21` (single isomer, unassigned) [Example 15-B], half-maximal inhibition (IC50) required 109 nM.

Take `Fc1cccc2c1C=CC[C@@]21CN2C=C(C(F)(F)F)C=C(OC(F)F)C2=N1` (single isomer, unassigned) [Example 16-A]: the IC50 stood at 6.45 nM.

`Fc1cccc2c1C=CC[C@]21CN2C=C(C(F)(F)F)C=C(OC(F)F)C2=N1` (single isomer, unassigned) [Example 16-B] showed an IC50 of 20.4 nM.

In turn, `CC1=CCC2(CN3C=C(C(F)(F)F)C=C(OC(F)F)C3=N2)c2ccnc(Cl)c21` (stereo not shown) [Example 6, 1′-Chloro-8-difluoromethoxy-8′-methyl-6-trifluoromethyl-3H,6′H-spiro[imidazo[1,2-a]pyridine-2,5′-isoquinoline]] displayed an IC50 of 181 nM.

For `FC(F)OC1=CC(C(F)(F)F)=CN2CC3(CC=C(Cl)c4c3ccnc4Cl)N=C12` (stereo not shown) [Example 7, 1′,8′-Dichloro-8-difluoromethoxy-6-trifluoromethyl-3H,6′H-spiro[imidazo[1,2-a]pyridine-2,5′-isoquinoline]], the IC50 came to 24.4 nM.

The compound `FC(F)OC1=CC(C(F)(F)F)=CN2CC3(CC=C(C(F)(F)F)c4c3ccnc4Cl)N=C12` (stereo not shown) [Example 8, 1′-Chloro-8-difluoromethoxy-6,8′-bis(trifluoromethyl)-3H,6′H-spiro[imidazo[1,2-a]pyridine-2,5′-isoquinoline]] gave an IC50 of 148 nM.

In the case of `FC(F)OC1=CC(C(F)(F)F)=CN2CC3(CC(Cl)=Cc4c3ccnc4Cl)N=C12` (stereo not shown) [Example 9, 1′,7′-Dichloro-8-difluoromethoxy-6-trifluoromethyl-3H,6′H-spiro[imidazo[1,2-a]pyridine-2,5′-isoquinoline]], the IC50 is 47.9 nM.

On to `FC1=CCC2(CN3C=C(C(F)(F)F)C=C(OC(F)F)C3=N2)c2ccc(Br)c(F)c21` (stereo not shown) [Example 11, 6′-Bromo-8-difluoromethoxy-4′,5′-difluoro-6-trifluoromethyl-2′H,3H-spiro[imidazo[1,2-a]pyridine-2,1′-naphthalene]], for which the IC50 turned out to be 12.2 nM.

`Fc1c(Br)ccc2c1C=CCC21CN2C=C(C(F)(F)F)C=C(OC(F)F)C2=N1` (stereo not shown) [Example 12, 6′-Bromo-8-(difluoromethoxy)-5′-fluoro-6-(trifluoromethyl)-2′H,3H-spiro[imidazo[1,2-a]pyridine-2,1′-naphthalene]] displayed an IC50 of 1.08 nM.

As to `Fc1c(Br)ccc2c1C(I)=CCC21CN2C=C(C(F)(F)F)C=C(OC(F)F)C2=N1` (stereo not shown) [Example 13, 6′-Bromo-8-difluoromethoxy-5′-fluoro-4′-iodo-6-trifluoromethyl-2′H,3H-spiro[imidazo[1,2-a]pyridine-2,1′-naphthalene]], the IC50 was found to be 116 nM.

As for `Fc1c(Br)ccc2c1C(Cl)=CCC21CN2C=C(C(F)(F)F)C=C(OC(F)F)C2=N1` (stereo not shown) [Example 14, 6′-Bromo-4′-chloro-8-difluoromethoxy-5′-fluoro-6-trifluoromethyl-2′H,3H-spiro[imidazo[1,2-a]pyridine-2,1′-naphthalene]], inhibition was half-maximal at 4.12 nM (IC50).

For the compound `Cc1nccc2c1C=CCC21CN2C=C(C(F)(F)F)C=C(OC(F)F)C2=N1` (stereo not shown) [Example 17, 8-Difluoromethoxy-1′-methyl-6-trifluoromethyl-3H,6′H-spiro[imidazo[1,2-a]pyridine-2,5′-isoquinoline]], half-maximal inhibition (IC50) was put at 705 nM.

On to `Cc1ccc2c(c1F)C=CCC21CN2C=C(C(F)(F)F)C=C(OC(F)F)C2=N1` (stereo not shown) [Example 18, 8-Difluoromethoxy-5′-fluoro-6′-methyl-6-trifluoromethyl-2′H,3H-spiro[imidazo[1,2-a]pyridine-2,1′-naphthalene]], for which inhibition was half-maximal at 3.48 nM (IC50).

In turn, `Fc1cccc2c1C(I)=CCC21CN2C=C(C(F)(F)F)C=C(OC(F)F)C2=N1` (stereo not shown) [Example 19, 8-Difluoromethoxy-5′-fluoro-4′-iodo-6-trifluoromethyl-2′H,3H-spiro[imidazo[1,2-a]pyridine-2,1′-naphthalene]] came in with an IC50 of 302 nM.

`FC(F)OC1=CC(C(F)(F)F)=CN2CC3(CC=Cc4cnccc43)N=C12` (stereo not shown) [Example 20, 8-Difluoromethoxy-6-trifluoromethyl-3H,6′H-spiro[imidazo[1,2-a]pyridine-2,5′-isoquinoline]] yielded an IC50 of 813 nM.

`O=[N+]([O-])c1c(Nc2cc(F)cc(Cl)c2)ccc2nonc12` [positive control compound, reference compound] returned an IC50 of 497 nM.
